Several values for one entry are separate records, joined by “and”; a condition that tells them apart may be missing. Equal entries are not always repeated.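 A five-concentration, 48-hour dose response in 96-well plates underlies each endpoint, interpolated linearly between surrounding concentrations. Abbreviation: GI50, concentration required for 50% inhibition of growth. TGI marks complete inhibition of growth.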 Where a SMILES comes first, the peptide text is derived from it. [ ]: non-standard residue; d: D form. The star is where a group is joined. ξ: configuration not given here. ξF = NC(Cc1ccccc1)C(=O)O; Cbz = O=C(OCc1ccccc1)*
Columns and labels:
Assay in all cases: NCI anticancer screen, dose series, 48 h
RXF 393 renal = system: RXF 393 renal
OVCAR-5 ovarian = system: OVCAR-5 ovarian
NCI-H522 lung = system: NCI-H522 lung
COLO 205 colon = system: COLO 205 colon
U251 CNS = system: U251 CNS
SF-268 CNS = system: SF-268 CNS
DU-145 prostate = system: DU-145 prostate
CCRF-CEM leukemia = system: CCRF-CEM leukemia
SW-620 colon = system: SW-620 colon
RPMI-8226 leukemia = system: RPMI-8226 leukemia
PC-3 prostate = system: PC-3 prostate
786-0 renal = system: 786-0 renal
OVCAR-4 ovarian = system: OVCAR-4 ovarian
MOLT-4 leukemia = system: MOLT-4 leukemia
SF-539 CNS = system: SF-539 CNS
HL-60(TB) leukemia = system: HL-60(TB) leukemia

Compound	TGI (RXF 393 renal) [µM]	TGI (OVCAR-5 ovarian) [µM]	TGI (NCI-H522 lung) [µM]	TGI (COLO 205 colon) [µM]	TGI (U251 CNS) [µM]	TGI (SF-268 CNS) [µM]	TGI (DU-145 prostate)	TGI (CCRF-CEM leukemia) [µM]	TGI (SW-620 colon) [µM]	TGI (RPMI-8226 leukemia) [µM]	TGI (PC-3 prostate) [µM]	TGI (786-0 renal) [µM]	TGI (OVCAR-4 ovarian) [µM]	TGI (MOLT-4 leukemia) [µM]	TGI (SF-539 CNS) [µM]	TGI (HL-60(TB) leukemia) [µM]	GI50 (SF-268 CNS) [nM]	GI50 (OVCAR-4 ovarian) [µM]
O=C(NCCC1CNc2ccccc21)OCc1ccccc1 (centres undefined)	> 100	> 100	> 100	> 100	> 100	> 100	> 100 µM	> 100	> 100	> 100	> 100	> 100	> 100	> 100				
CC1(C)O[C@@H]2[C@@H](COC(C)(C)O[C@H]2C2SCCCS2)O1	> 100	> 100	> 100	> 100	> 100	> 100	> 100 µM		> 100	> 100	> 100	> 100	> 100	> 100	> 100			
CC(=O)NC1C(OCC(=O)NCCNc2ccc([N+](=O)[O-])c3[nH]c4ccccc4c(=O)c23)C(O)C(CO)OC1(C)OCc1ccccc1 (centres undefined)	> 100	> 100	> 100	> 100	> 100	> 100	> 100 µM	> 100	> 100	> 100	> 100	> 100	> 100	> 100	> 100			
COC(=O)/C=C/c1ccc(OP(=O)(O)O)c(OC)c1	> 100	> 100	> 100	> 100	> 100	> 100	> 100 µM	> 100	> 100	> 100	> 100	> 100	> 100	> 100	> 100			
O=c1c(-c2ccccc2)nnc2n(Cc3ccccc3)c3ccccc3n12	> 100	> 100	> 100	> 100	> 100	> 100	> 100 µM	> 100	> 100			> 100	> 100	> 100	> 100	> 100		
COC(=O)[C@@]12OC[C@]34C([C@@H](O)C1O)[C@@]1(C)CC(=O)C(OC(=O)CC(C)C(F)(F)F)=C(C)C1C[C@H]3OC(=O)[C@H](O)[C@H]42 (some centres undefined)	23.6	> 62.5	24.5	30	> 62.5	56.8		> 62.5	> 62.5	5.56		38.5	> 62.5	19.4	10.9	1.98		
COC1(OC)CCc2c(sc3ncnc(Nc4cccc(Br)c4)c23)C1	62.4	51.4	30.3	> 100	> 100	> 100	53.9 µM		> 100	59.5	> 100	> 100	> 100	41.5	> 100			
CC(N)(CC(O)(C(F)(F)Cl)C(F)(F)Cl)C(=O)O (centres undefined)		> 10	> 10	> 10	> 10	> 10	> 10 µM	> 10	> 10		> 10	> 10	> 10	> 10	> 10			
O=C1c2ccccc2N2OC3(N4CCOCC4)CCCC3C12c1ccccc1 (centres undefined)	> 100		> 100	> 100	> 100	> 100		> 100	> 100	> 100		> 100	> 100	> 100	> 100	> 100		
COC(=O)[C@@H]1[C@@H]2NC(=S)N[C@@]1(C)Oc1ccccc12	> 100	> 100	> 100	> 100	> 100	> 100	> 100 µM	> 100	> 100	> 100	> 100	> 100	> 100	> 100	> 100			
C1CSCCSCCCS[C@@H]2CCCCC2SC1 (some centres undefined)	> 100	> 100	> 100	> 100	> 100	> 100		88.7	53.5	52.6		> 100	> 100		> 100	> 100		
Clc1ccc(C=Nc2ccc(Oc3ccc(Cl)cc3)c(Cl)c2)cc1		> 100	32.3	36.5	60.5	41.1	> 100 µM	59.7	> 100	> 100	69.8	36.1	76.1	> 100	35.4	63.8		
O=c1[nH]c(N/N=C\C(O)C(O)C(O)C(O)CO)nc2ccccc12 (centres undefined)		> 100		> 100	> 100	> 100	> 100 µM	> 100	> 100	> 100	> 100	> 100		> 100	> 100	> 100		
CC(C)(CN1CCCCC1)C(=O)/C=C/c1ccc(Br)cc1	4.48	11.8	3.98	5.56	8.11	7.08		9.34	6.83	> 27.1		4.72	19.3	6.87	4.96	5.83		
CCOC(=O)C1(C/C=C\CBr)CCCC1=O (centres undefined)	31.3	> 100	46.8	> 100	48.7	> 100	73.2 µM		54.9		> 100	> 100	> 100		44.9			
CCCCCCCCOCC(COC(=O)CCCCCCC)OC(=O)CCCCCCC (centres undefined)		> 100		> 100	> 100	> 100		> 100	> 100	> 100		> 100	> 100	> 100		> 100		
CN1CCOC(C(NC(=O)c2ccccc2)c2ccccc2)C1=O (centres undefined)	> 100	> 100	> 100	> 100	> 100	> 100		> 100	> 100	> 100		> 100	> 100	> 100	> 100	> 100		

Compound	TGI (RXF 393 renal) [µM]	TGI (OVCAR-5 ovarian) [µM]	TGI (NCI-H522 lung) [µM]	TGI (COLO 205 colon) [µM]	TGI (U251 CNS) [µM]	TGI (SF-268 CNS) [µM]	TGI (DU-145 prostate)	TGI (CCRF-CEM leukemia) [µM]	TGI (SW-620 colon) [µM]	TGI (RPMI-8226 leukemia) [µM]	TGI (PC-3 prostate) [µM]	TGI (786-0 renal) [µM]	TGI (OVCAR-4 ovarian) [µM]	TGI (MOLT-4 leukemia) [µM]	TGI (SF-539 CNS) [µM]	TGI (HL-60(TB) leukemia) [µM]	GI50 (SF-268 CNS) [nM]	GI50 (OVCAR-4 ovarian) [µM]
N#Cc1sc2nc3ccccc3n2c1N	67.6	> 100	> 100	> 100	> 100	> 100	> 100 µM	> 100	> 100	> 100	> 100	> 100	> 100	> 100	> 100			
CN=c1sc2c(n1C)C(=O)c1ccccc1C2=O	9.01	9.26	29.4	11.9	10.5	14.5	3.12 µM	44.4	4.81	24.6	> 55.1	20.7	11	26.5	4.2			
Cc1cc2nc3c(C#N)c(-c4ccccc4)/c(=C\Nc4ccc(F)cc4)c(=O)n3c2cc1C	> 100	> 100	> 100	> 100	> 100	> 100		> 100	> 100	> 100	> 100	> 100	> 100		> 100			
CCOC(=O)CNC(=O)C(Cc1ccccc1)NC(=O)OCc1ccccc1 (centres undefined) (Cbz-[ξF]-Gly-OEt)		> 100		> 100	> 100	> 100	> 100 µM	> 100	> 100	> 100	> 100	> 100		> 100		> 100		
COc1cc2nc(Cl)nc(NS(=O)(=O)c3cc4ccccc4s3)c2cc1OC	37.9	50	74.6	> 100	68.5	> 100	60.1 µM	33	43.5	44.9	75.6	> 100	88.1		> 100			
C1CCC(N=C2N(C3CCCCC3)C(=NC3CCCCC3)N2C2CCCCC2)CC1	> 100	> 100	> 100	> 100	> 100	> 100		> 100	> 100	> 100		> 100	> 100	> 100		> 100		
Cn1c(CNc2ccc(-c3n[nH]c(=S)n3C)cc2)n[nH]c1=S		> 100	> 100	> 100	> 100	> 100	> 100 µM	> 100	> 100		> 100	> 100	> 100	> 100	> 100	> 100		
c1cc(-c2ccc(-c3ccsc3)s2)cs1	> 100	> 100	> 100	> 100	49.7	> 100	> 100 µM	44.4	> 100	> 100		> 100	57.5	> 100	89.8	67		
CCOC(=O)c1cn(CC)c(=O)n2c1nc1ccccc12	> 100	> 100		> 100	> 100		> 100 µM	> 100	> 100	75.1	> 100	> 100	> 100	> 100	> 100			
COc1ccc(-c2oc3cc(-c4cc5oc(-c6ccc(OC)cc6)c(-c6ccc(OC)cc6)c5cc4OC)c(OC)cc3c2-c2ccc(OC)cc2)cc1	> 100	> 100	> 100	> 100	> 100	> 100	> 100 µM	> 100	> 100	> 100	> 100	> 100	> 100	> 100	> 100			
O=C1CC(c2ccc(Cl)cc2)=Nc2ccccc2N1	61.4	> 100	> 100	> 100	75.6	> 100		41.9	47.9			> 100	> 100	> 100	> 100	57.6		
CCOC(=O)C1S(=O)(=O)OCCOS1(=O)=O			> 100	> 100		> 100		> 100	> 100	> 100		> 100	> 100	> 100	> 100	> 100		
O=C(O)CCCc1ccc2c(c1)CC1(C2)Cc2cc3c(cc2C1)CCCC3	> 100	41.3	47	38.2	32.9			27.9		53.2	66.8	58.6	45.6	5.4	3.82	28.2		
O=c1cc(Nc2cccc(O)c2)[nH]c(=O)[nH]1	> 100	> 100	> 100	> 100	> 100	> 100		> 100	> 100	> 100	> 100	> 100	> 100	> 100	> 100	> 100		
O=C1CC(c2cccc(Cl)c2)Nc2ccc(N3CCCC3)cc21 (centres undefined)	0.0845		0.0677		> 100	> 100	2.25 µM and 13.6 µM		> 100	0.0171	> 100	> 100	> 100				41.7	18.6
O=C(c1ccc(Cl)cc1)N(C(=O)N1CCCCC1)c1ccccc1		> 100		> 100	> 100	> 100	> 100 µM	> 100	> 100	> 100	> 100	> 100		72	> 100	> 100		
